{"source": "patent US20060088560A1", "about": "“Cosmetic use of mangiferin” (LA[…] BIOLOGIE VEGETALE YVES ROCHER, priority 2004, published 2006)", "key": {"HSP70 [1]": {"test_system": "HSP70", "test": "Preventive protection: HSP70 immunolabeling in normal human dermal fibroblasts treated with mangiferin before hot heat stress", "type": "cell-based", "procedure": "(§1) Normal human dermal fibroblasts (NHDFs) are seeded (passage 3) onto glass Labtek culture chambers (8 chambers/slide) to a proportion of 10 000 cells/chamber and incubated for 10 hours in an incubator at 37° C., 5% CO2 and 95% humidity. The culture medium consists of DMEM devoid of phenol red (Invitrogen, ref. 31053028) supplemented with 10% fetal calf serum (FCS) (Invitrogen, ref 16010159, batch 40F1420D), 1% of a solution of non-essential amino acids (Invitrogen, ref 11140035), 100 μg/ml penicillin, 100 U/ml streptomycin, 2 mM L-gluthamine and 1% of a sodium pyruvate solution (Invitrogen, ref. 11360039).\nThe NHDFs are treated for 15 hours with mangiferin solubilized at 0.1% in DMSO, then diluted in the culture medium (DMEM with 1% FCS) to 2.10^−4%. A reference culture medium is also made on the same slide. To validate the study, a slide is treated in the same manner but the cells are not subjected to stress.\nThe cells are subsequently rinsed in Hanks Balanced Saline Solution (HBSS buffer Invitrogen, ref. 14025050) then placed under hot thermal stress conditions: incubation 1 hour at +45° C. in the HBSS solution (0.4 ml per chamber.).\nAfter the stress, the cells are rinsed in the HBSS solution then incubated 8 hours in the culture medium (DMEM with 1% FCS), in an incubator at 37° C., 5% CO2 and 95% humidity.\nThe cells are rinsed in HBSS solution 8 hours after the stress. […]"}, "MMP1 metalloprotease": {"test_system": "MMP1 metalloprotease", "test": "Assay of MMP1 metalloprotease (ELISA, per viable cell unit by MTT) in NHDFs after heat stimulation", "type": "cell-based, human", "conditions": "mangiferin 2.10^-4% w/v, MMP1 per viable cell unit vs reference without mangiferin", "text": "In this example, to illustrate the inhibitive action of mangiferin on the expression of MMP enzymes, the quantity of MMP1 enzymes present in normal human dermal fibroblasts (NHDFs) after a heat stress in the presence of mangiferin was compared with the quantity obtained for NHDFs in a reference medium subjected to the same conditions but without the presence of mangiferin.\nThis comparison was made for different conditions of heat treatment (no stress, hot stress, cold stress).\nIn each case, the tested NHDFs were placed in culture then treated under the following conditions:\nThe first day (day D), the NHDFs were seeded to a proportion of 160 000 cells/well/mL in 24-well plates in a normal medium.\nThe following day (day D+1), the culture medium was depleted of serum.\nWhen the test was conducted in the presence of mangiferin, the treatment with mangiferin was complete, i.e. the mangiferin was added to the medium to a content of 2.10^−4 g/100 mL (2.10^−4% w/v) 24 hours before the heat stress, during the heat stress and 24 hours after the onset of heat stress.\nOn the contrary, no mangiferin at all was added to the references.\nAfter these steps, 24 hours after the heat stress, the MMP1 present in the medium was assayed using a quantitative technique of ELISA type, with a commercial Amersham kit. In parallel, the number of viable cells in the medium was determined using the MTT colorimetric test. On the basis of these elements, a MMP1 content was determined per viable cell unit.\nFor each of the heat treatment conditions, a reduction in MMP1 content was observed per viable cell unit in the presence of mangiferin, compared with the content obtained in the references without mangiferin. In this respect, a percentage inhibition of MMP1 expression (Pi) is defined which is calculated using the following formula: Pi(as %)=(Tt−Tm)/Tt in which: • Tm designates the MMP1 content per viable cell unit in the presence of mangiferin; • Tt designates the MMP1 content per viable cell unit for the reference without mangiferin under the same heat treatment conditions."}, "[2]": {"conditions": "cited from earlier work"}, "HSP70 [3]": {"test_system": "HSP70", "test": "Curative protection: HSP70 immunolabeling in normal human dermal fibroblasts treated with mangiferin after hot heat stress", "type": "cell-based", "procedure": "as §1, with “The” for “Normal human dermal”, “(NHDFS)” for “(NHDFs)”\nThe NHDFs are rinsed in the HBSS solution then incubated 15 hours in the culture medium (DMEM with 1% FCS), in an incubator at 37° C., 5% CO2 and 95% humidity.\nThe cells are subsequently rinsed in an HBSS solution (Invitrogen, ref. 14025050) then placed under conditions of hot thermal stress: incubation 1 hour at +45° C. in the HBSS solution (0.4 ml per chamber).\nAfter the stress, the cells are rinsed in the HBSS solution then treated for 8 hours with the mangiferin solubilized in the DMSO, then diluted in the culture medium (DMEM with 1% FCS) to 2.10^−4%. A reference culture medium is also made on the same slide.\nThe cells are rinsed in an HBSS solution 8 hours after the stress. The culture chambers are removed and the cells left to dry under a laminar flow hood. […]"}}, "data": [{"molecule": "O=c1c2cc(O)c(O)cc2oc2cc(O)c([C@@H]3O[C@H](CO)[C@@H](O)[C@H](O)[C@H]3O)c(O)c12", "note": "[mangiferin, C-glucoside of tetrahydroxy-1,3,6,7 xanthone]", "values": [{"measurement": "Labeling of the HSP70s", "setting": "HSP70 [1]; NHDFs treated with mangiferin 2.10^-4% for 15 hours before stress (1 hour at +45° C.), read 8 hours after stress, vs untreated stressed cells", "value": "further intensified"}, {"measurement": "Basic expression of the HSP70s (labeling)", "setting": "HSP70 [1]; NHDFs, no stress, mangiferin 2.10^-4% for 15 hours", "value": "not modified"}, {"measurement": "Percentage inhibition Pi of MMP1 expression", "setting": "MMP1 metalloprotease; Cold heat stress: 10 min at −20° C.", "value": 22, "unit": "%"}, {"measurement": "Percentage inhibition Pi of MMP1 expression", "setting": "MMP1 metalloprotease; Hot heat stress: 30 min at +45° C.", "value": 51, "unit": "%"}, {"measurement": "Percentage inhibition Pi of MMP1 expression", "setting": "MMP1 metalloprotease; Hot heat stress: 30 min at +50° C.", "value": 40, "unit": "%"}, {"measurement": "Percentage inhibition Pi of MMP1 expression", "setting": "MMP1 metalloprotease; Hot heat stress: 1 h at +45° C.", "value": 36, "unit": "%"}, {"measurement": "Percentage inhibition Pi of MMP1 expression", "setting": "MMP1 metalloprotease; No heat stress: 1 h at +37° C.", "value": 34, "unit": "%"}, {"measurement": "Solubility in alkaline liquids", "setting": "[2]; alkaline liquids (salt formation by phenol OH groups)", "value": "soluble"}, {"measurement": "Solubility in cold water", "setting": "[2]; cold water", "value": "scarcely soluble"}, {"measurement": "Labeling of the HSP70s", "setting": "HSP70 [3]; NHDFs treated with mangiferin 2.10^-4% for 8 hours after stress (1 hour at +45° C.), vs untreated stressed cells", "value": "reduced"}, {"measurement": "Basic expression of the HSP70s (labeling)", "setting": "HSP70 [3]; NHDFs, no stress, mangiferin 2.10^-4% for 8 hours", "value": "not modified"}]}]}
